Compound `COc1ccc(C(=O)C=Cc2ccccc2)cc1C=CC(=O)O` yielded a melting point of 204 °C.
Compound `CCCCc1nnc2n1-c1sc3c(c1C(c1ccccc1Cl)=NC2)CCNC3` yielded a melting point of 224 °C.
`CCOC(=O)c1c(Cl)c2cc(F)cnc2[nH]c1=O`: the melting point is 217 °C.
`COc1ccc(S(=O)(=O)Nc2ccccc2NC(=O)c2cnccc2C)cc1` gave a melting point of 199 to 200 °C.
As for `CN1CCN(c2cc(Cl)cc3c2c(=O)n(Cc2ccccc2)c(=O)n3Cc2ccccc2)CC1`, the melting point is 113 to 116 °C.
In the case of `CCOC(=O)c1c(N2CCN(C(=O)c3cccs3)CC2)c2cccnc2n(Cc2ccc(F)cc2)c1=O`, the melting point was determined as 196 °C.
With `C=CC(=O)OCCCCCCCCCCCCOc1ccc(-c2cccc(F)c2F)cc1` the figure was 59.7 to 60.7 °C.
`Cc1cccc(C(=O)NC(NC(=NC#N)Nc2ccc(Cl)nc2)C(C)(Cl)Cl)c1` (configuration not stated): the melting point fell in the range of 145 to 146 °C.
With `N#CC1(c2cccc3ccccc23)CCC(=O)CC1` the figure was 166 to 167 °C; with `CCOC(=O)C(=O)c1csc(NC(=S)Nc2ccccc2F)n1`, 192 to 193 °C; with `COc1cc(OC)c(-c2cccnc2)cc1/C=C/C(=O)c1ccc(S(N)(=O)=O)cc1`, 253 to 255 °C.
The compound `COc1cn(-c2cc(F)c(Br)cc2F)nc(-c2ccnn2-c2ccccc2)c1=O` returned a melting point of 211 to 213 °C.
`Cn1nc(-c2nc(OCC(N)=O)c(Cl)cc2F)c(Cl)c1OC(F)F` registered a melting point of 178 to 180 °C.
With `C[C@H]1[C@H](OS(C)(=O)=O)CN1C(c1ccccc1)c1ccccc1` (relative stereo) the figure was 68 to 71 °C.
Take `O=c1[nH]c(=O)n(CCCCN2CC=C(c3ccccc3)CC2)c2ccccc12`: the melting point lay in the range of 170 to 174 °C.
Turning to `CNC(N)=C(CCSCc1csc(CN(C)C)n1)[N+](=O)[O-]`, the melting point fell in the range of 130 to 132 °C.
`CC(=O)CCc1c(OC(C)=O)cc(C(C)C)c(OC(C)=O)c1C(C)C`: the melting point lay in the range of 108 to 112 °C.
Consider `NCCCOc1ccc(OCCCN)cc1`, for which the melting point is 73 to 74 °C.
Under `CNC(=O)C(=O)c1ccccc1COc1cc(C)ccc1C` stands 129 to 130 °C.
With `O=C(O)CCCCCCCCCCOc1ccccc1` the figure was 76 to 78 °C; with `CCOC1CC2(C)C(CCC3C4CCC(C(C)=O)C4(C)CC(NC(=O)OCC(Cl)(Cl)Cl)C32)CC1OC(=O)OCC(Cl)(Cl)Cl` (configuration not stated), 147 to 149 °C; with `CNc1ccc(S(=O)(=O)Nc2ccccc2)cc1`, 113 to 114 °C.
Under `COc1cc(N2CCOCC2)ccc1Nc1nc(Nc2ccc(OC)c3c2N(C)C(=O)CCC3)ncc1Cl` stands 230 to 232 °C.
In turn, `NCc1ccc(N2CCC2)cc1` showed a melting point of 58 to 60 °C.
Take `O=S(=O)(Nc1cc(Br)nc(Br)c1)c1cccc(C(F)(F)F)c1`: the melting point fell in the range of 149 to 151 °C.
`CCOC(=O)N(N=C[N+](=O)[O-])c1ccc(C(=O)OC)c(S(=O)(=O)NC(C)(C)C)c1` registered a melting point of 142 to 145 °C.
Turning to `O=C(OCc1ccccc1)c1ccc(OCc2ccccc2)cc1OCc1ccccc1`, the melting point is 118 to 120 °C.
The compound `COc1cccc(CNC(=O)c2nc3ccc(SC)cc3c(=O)[nH]2)c1` showed a melting point of 168 to 170 °C.
Under `c1ccc(CCOc2ncnc3nc[nH]c23)cc1` stands 209 to 210 °C; under `CCCCOc1cc(/C=C/C(=O)O)n(Cc2ccc(C(F)(F)F)cc2Cl)n1`, 172 to 174 °C; under `COc1nc(C)c(C(C)=O)cc1NC(=O)N1CCN(c2cc(C)cc(C)c2)CC1`, 66 to 69 °C.
Under `Nc1nc(C(=NOCC(=O)NOCc2ccccc2)C(=O)O)cs1` stands 170 to 172 °C; under `O=C(O)c1ccc(CN2Cc3ccccc3Cc3ccccc32)cc1`, 198 °C.
For the compound `CCCCCCCCCOC1C(O)C(CO)OC1n1cnc2c(=O)[nH]c(NC(=O)C(C)C)nc21` (configuration not stated), the melting point was 168 to 169 °C.
In the case of `Cc1cccc2c1S(=O)(=O)NC(C1CCCCC1)N2` (configuration not stated), the melting point fell in the range of 228 to 230 °C.
As to `O=C(O)CN(CC(=O)c1ccccc1)c1c(C(=O)O)[nH]c2cc(Cl)cc(Cl)c12`, the melting point fell in the range of 235 to 237 °C.
The compound `Cc1onc2c(=O)[nH]nc(-c3ccc(O)cc3)c12` gave a melting point of 268 to 276 °C.
As to `COc1ccccc1Oc1c(Cl)nc(-c2ncccn2)nc1OCCO`, the melting point was in the range of 133 to 137 °C.
As to `Cc1nnc(-c2ccc3occ(-c4ccc(S(C)(=O)=O)c(F)c4)c3c2)o1`, the melting point is 199 to 200 °C.
Under `CCOC(=O)c1cc2c3n(ccc-2n1)CC(C(C)(C)C)=N3` stands 276 to 278 °C.
With `Cc1c(CC(=O)OCCO)cc(-c2ccc(S(C)(=O)=O)cc2)n1-c1ccc(F)cc1` the figure was 129 to 131 °C; with `N#Cc1ccc(N2C[C@@H]3[C@H](O)CCN3C2=O)c2ccccc12`, 226 to 228 °C.
Compound `CCOC1(OCCc2nc(C(C)C)c(Sc3cc(Cl)cc(Cl)c3)n2C)CCCCCC1` showed a melting point of 53 to 54 °C.
With `CC(Cc1c[nH]c2ccccc12)(NC(=O)OC1C2CC3CC(C2)CC1C3)C(=O)NCC(NC=O)c1ccccc1` (configuration not stated), the melting point was in the range of 102 to 118 °C.
Compound `O=c1ccc(-c2ccc(F)cc2)nn1CCF` had a melting point of 145 °C.
In turn, `CN1CCCc2cc(C=C3SC(=O)NC3=O)ccc21` showed a melting point of 254 to 257 °C.
Compound `C[C@@H](O[Si](C)(C)C(C)(C)C)[C@@H]1C(=O)N[C@@H]1S(C)(=O)=O` gave a melting point of 101 to 102 °C.
Take `COC(=O)C1C(=O)Nc2ccc(Cl)cc2CC1c1ccc(OC)cc1` (configuration not stated): the melting point was in the range of 189 to 190 °C.
Under `Nc1cc(C(O)=S)cc(SCc2ccccc2)c1-c1ccccc1` stands 170 to 172 °C; under `CC(C)=C1OC(=O)N(c2ccc(Cl)cc2)C1=O`, 135 to 136 °C.
Under `CCc1cn(-c2nccs2)c2c1C(=O)CC(C)(C)C2` stands 58 to 60 °C.
For `CCCOc1ncc(C(C)=O)cc1-c1nc2c(CC)n(C3CN(C(C)=O)C3)nc2c(=O)[nH]1`, the melting point is 229 to 230 °C.
On to `CCC(N)C1CCN(c2c(F)cc3c(=O)c(C(=O)O)cn(C4CC4)c3c2F)C1` (configuration not stated), for which the melting point is 177 to 179 °C.
The compound `CCCCCCCCCCCCCCCC(=O)Nc1c(C)cccc1C(=O)O` gave a melting point of 106 to 113 °C.
Take `Cc1ccc(N(C)S(=O)(=O)c2cccs2)c2[nH]c(-c3nccs3)cc12`: the melting point lay within 159 to 160 °C.
With `CCCn1c2cc(Cl)ccc2c(=O)c2cccn21` the figure was 107 to 108 °C.
Compound `COC(=O)CCc1cc2cc(Cl)ccc2n1S(=O)(=O)c1ccc2c(c1)OCO2` gave a melting point of 122 to 129 °C.
`O=C(NCCCO)C1=C(C(=O)Nc2ccc(Cl)cc2F)CCCC1` returned a melting point of 138 °C.
Turning to `CC(C)(C)Nc1c(NCc2cc3cc([N+](=O)[O-])ccc3o2)c(=O)c1=O`, the melting point was greater than 300 °C.
Under `COc1ccc(-c2cc3cc(OC)cc(CC#N)c3o2)cc1` stands 149 to 150 °C; under `CC(C)C[C@H](C(=O)O)N1CC[C@]2(CCCN2C(=O)C(C)C)C1=O`, 68 to 69 °C; under `O=C1C(=Cc2ccc(Cl)cc2)C(c2ccc(Cl)cc2)Oc2ccc(O)cc21` (configuration not stated), 228 to 230 °C.
The compound `CCOC(=O)C=CNC(=O)Nc1ccc(Cl)c(C(=O)OCC)c1` came in with a melting point of 116 to 117 °C.
As to `CCN(CC)c1ccc(C(=O)O)nc1`, the melting point was in the range of 146 to 148 °C.
The compound `CCOC(=O)CNC(=O)NCc1cccc2c1C(=O)N(C1CCC(=O)NC1=O)C2=O` (configuration not stated) gave a melting point of 187 to 189 °C.
Turning to `c1cc(-c2cnc(-c3ccc(-c4cnco4)o3)o2)nc(-c2cnc(-c3ccc(-c4cnco4)o3)o2)c1`, the melting point is greater than 250 °C.
Consider `Cc1ccccc1-c1cnc2c(C(F)(F)F)cccc2c1-c1cccc(NC(=O)Nc2ccccc2F)c1`, for which the melting point was 218 to 220 °C.
With `Cc1nc(-c2ccccc2)nc(-c2cccc([N+](=O)[O-])c2)c1C(=O)NCCN(C)C` the figure was 122 to 124 °C; with `Cc1cn(-c2ccc(N3C[C@H](COS(C)(=O)=O)OC3=O)cc2F)cn1`, 151 to 153 °C; with `NC(=NO)C1CCN(c2ccc3c(NC(=O)CC4CCCCC4)c(Cl)ccc3n2)CC1`, 246 to 247 °C.
As to `Cc1nnc2cccc(-c3ccccn3)n12`, the melting point lay in the range of 168 to 170 °C.
Consider `C[C@@H]1Cc2ccsc2[C@H](C)N1CCNS(=O)(=O)c1ccc([N+](=O)[O-])cc1` (relative stereo), for which the melting point lay within 116 to 119 °C.
`CCOC(C)(C)C(=O)O[C@H]1C[C@H](O)C=C2C=C[C@H](C)[C@H](CC[C@@H]3C[C@@H](O)CC(=O)O3)[C@H]21` yielded a melting point of 132 °C.
Under `O=C1CC2(CCCC2)CC(=O)N1c1cccnc1` stands 153 to 154 °C; under `Cc1[nH]c2cccnc2c1-c1ccc(F)cc1`, 199 to 206 °C; under `COc1cccc(-c2c(Cl)c(CN3CCCCC3)nc3sc4c(c23)CCN(Cc2ccccc2)C4)c1OC`, 173 to 174 °C.
With `CCCC(CCC)NC(=O)c1ccc2oc(OCC)nc2c1`, the melting point was 128 to 129 °C.
The compound `CCOC(=O)c1ccc(C2=CCCCC2)cc1` had a melting point of 66 °C.
With `CCC1(CCCN2CCc3sccc3C2)C(=O)Nc2ccccc21` (configuration not stated) the figure was 130 to 132 °C; with `CC(C)(C)OC(=O)NC1(CCN2C(=O)c3ccccc3C2=O)CC1`, 125 to 127 °C.
`CCCCCCCOCC1OC1CO` (configuration not stated) came in with a melting point of 50 to 52 °C.
Compound `O=C(CSc1ccc(C(F)(F)F)cn1)C12CC3CC(CC(C3)C1)C2` showed a melting point of 141 to 142 °C.
Take `Cn1c2ccccc2c2cc(C(=O)N3CCOCC3)sc21`: the melting point lay in the range of 125 to 127 °C.
With `Cc1ccc(-c2[nH]c(C3CCCCC3)nc2C(=O)O)cc1` the figure was 205 to 206 °C.
With `COCCCn1c(C=O)cc2c3c(c(-c4ccccc4Cl)cc21)C(=O)NC3=O` the figure was 155 to 156 °C; with `COc1cc(C(=O)NS(=O)(=O)c2ccccc2Cl)ccc1Cn1cc(/C=C/C(=O)N2CCCC2)c2ccc(/C=C/C(=O)N3CCCC3)cc21`, 291 to 293 °C.
With `CSc1ncc(S(N)(=O)=O)c(Nc2cccc(C)c2)n1` the figure was 184 °C.

The record behind these values is a melting point compilation (Tetko et al.; mined from patent text by program, amines drawn as free bases though some values may be those of a salt).
